The values below come from ChEMBL document CHEMBL1157632, “Discovery of dipeptides with high affinity to the specific binding site for substance P1-7” (J Med Chem, 2010).

Active and inactive are the calls of the source. No cut-off for these calls is given here. Peptide text beside a SMILES is read from it.

In this test the target is Neuromedin-K receptor (NK-3) (Homo sapiens) (UniProt P29371). As to the kind of experiment: Displacement of [MePhe7]-NKB from human recombinant NK3 receptor at 10 uM.
Chain of Neuromedin-K receptor (NK-3) (Homo sapiens) (P29371 whole entry, looked up): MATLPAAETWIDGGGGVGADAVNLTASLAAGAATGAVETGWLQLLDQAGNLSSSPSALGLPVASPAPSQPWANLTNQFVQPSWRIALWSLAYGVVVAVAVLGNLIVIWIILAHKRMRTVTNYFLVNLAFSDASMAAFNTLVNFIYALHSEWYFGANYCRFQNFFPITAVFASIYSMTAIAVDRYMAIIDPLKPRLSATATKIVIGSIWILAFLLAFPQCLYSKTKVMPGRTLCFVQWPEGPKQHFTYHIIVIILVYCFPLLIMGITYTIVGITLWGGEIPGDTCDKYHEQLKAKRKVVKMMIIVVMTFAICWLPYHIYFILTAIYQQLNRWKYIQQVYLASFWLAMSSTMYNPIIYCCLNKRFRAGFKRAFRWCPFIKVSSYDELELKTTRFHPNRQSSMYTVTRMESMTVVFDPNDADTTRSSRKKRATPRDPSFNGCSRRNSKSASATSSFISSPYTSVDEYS

Regarding `NC(=O)[C@H](Cc1ccccc1)NC(=O)[C@@H](N)Cc1ccccc1` (H-Phe-Phe-NH2), the result was inactive.
